Data on one compound can be found in patent publication US20150031739A1, “PANOBINOSTAT FOR USE IN THE TREATMENT OF HIV-1” (Aarhus Universitet, priority 2012, published 2015).

Series [1] relates to latently infected cell lines (U1 and ACH2). The series is described as follows: HIV-1 expression from latently infected cell lines, statements for both lines. The format is cell-based. As for the experimental part:
(§1) HIV-1 activation from U1 cells: U1 cells (obtained through the NIH AIDS Reagent Program) are seeded at 2*10^5/well in a 96-well format in 100 uL RPMI media supplemented with 10% heat inactivated Foetal Bovine Serum and 1% penicillin/streptomycin. HDACi and PMA as positive control is added at desired concentrations in 100 uL. Identical DMSO levels is used for untreated control. All stimulations are performed in triplicate. 48 hours later supernatant is harvested and left for inactivation in 1% Empegen for 1 hour. Levels of HIV-1 p24 gag levels is determined by ELISA as described by the manufacturer (Aalto Bioreagents, Dublin, Ireland).
as §1, with “ACH2” for “U1”, “1*10^5/well” for “2*10^5/well”, “Samples are diluted 1/500 and levels” for “Levels”, “gag” for “gag levels”

For series [2], the system named is cell-associated unspliced HIV RNA. Description: Cell associated unspliced Gag HIV RNA in CD4+ T cells of treated patients. The format is in vivo, HIV-1. On the procedure:
RNA purified from 1 million CD4+ T cells was treated with DNAse and split in 4 portions. Preparation of cDNA was performed by Superscript III Reverse Transcriptase as described by the manufacturer using both Oligo dT and random hexamer priming (Life Technologies, DK). Each cDNA sample was assayed in duplicate in a semi-nested real-time PCR quantification yielding eight replicates for each patient sample.
First round amplification was carried out with primers 5′-[…]-3′ (SEQ ID NO: 1) and 5′-[…]-3′ (SEQ ID NO: 2) with AmpliTaq gold mastermix (Life Technologies, DK) for a limited 15 cycles and input of 5 uL cDNA.
PCR conditions were as follows: A denaturation step at 95° C. for 10 minutes followed by 15 cycles of 20 seconds at 94° C., 40 seconds at 55° C. and 40 seconds at 72° C. Second round real-time PCR was performed using SYBR green mastermix (Life Technologies, DK) and primers 5′-[…]-3′ (SEQ ID NO: 3) and 5′-[…]-3′ (SEQ ID NO: 4) on a Bio-Rad CFX96™ Real-time PCR Platform. PCR conditions were as follows: A denaturation step at 95° C. for 10 minutes followed by 45 cycles of 20 seconds at 94° C., 40 seconds at 55° C., 40 seconds at 72° C. Subsequently, a dissociation curve was obtained by heating from 65° C. to 95° C. with a 0.5° C. increment for 5 seconds. A serial diluted standard allow for relative quantification of HIV Gag RNA levels.

The subject of the next series is histone H3 acetylation. Description: Histone H3 acetylation in PBMC's of patients during panobinostat administration. Type of series: in vivo, human. As for the experimental part: One million freshly isolated PBMC's harvested from CPT vacutainers (BD Bioscience, UK) were washed in ice-cold PBS with 1% FBS. Subsequently cells were fixed in 200 uL 1% paraformaldehyde for 15 min on ice and afterwards washed in PBS. […] Following a wash in FACS buffer (PBS/2% FBS), cells were blocked in PBS with 10% FBS for 20 min at RT. For each patient one sample was incubated for 1 hr at RT with either 5 uL primary anti-acetyl histone H3 antibody (Millipore, DK) or 5μ isotype control (final antibody concentration: 10 μg/m). Subsequently, cells were washed in FACS buffer and incubated with 5 uL secondary (Alexa-Flour 488 donkey anti-rabbit IgG from Life Technologies, DK) for 1 hr in the dark at RT (final antibody concentration: 6 μg/m). Lastly, cells were washed in FACS buffer, resuspended in PBS and analyzed on a FACS Canto II.

A further series deals with CD4+ T cells. The series is described as follows: CD4+ T cell counts in blood during panobinostat treatment. Type of series: in vivo, human. Particulars: intermittent dosing over 51 days, 20 mg oral TIW every other week, HIV-1 patients on HAART. As for the experimental part:
Measurement of CD4+ T cell counts was performed by flow cytometry as part of routine diagnostics evaluation of HIV-1 patients.

Consider `Cc1[nH]c2ccccc2c1CCNCc1ccc(/C=C/C(=O)NO)cc1` [LBH589, N-Hydroxy-3-[4-[2-(2-methyl-1H-indol-3-yl)ethylaminomethyl]phenyl]-2(E)-propenamide], for which the “rank order of induced HIV-1 expression” value in series [1] (direct comparison at the concentration obtained with clinical use) was “LBH589>ITF2357 and PXD101>SAHA”. In addition, the “rank order of potency when stimulating HIV-1 expression” value in series [1] (latently infected cell lines) is “LBH589>ITF2357 and PXD101>SAHA>VPA”. For the same compound, in series [1] (latently infected cell lines U1 and ACH2), the “concentration range in which HIV-1 expression is induced” value lay within 8 to 32 nM. Further, the “cell-associated unspliced Gag HIV RNA” value is recorded as 178 Gag HIV RNA copies in series [2] (patient A, first off/on cycle analyzed, off treatment); 323 Gag HIV RNA copies in series [2] (patient A, first off/on cycle analyzed, on treatment); 57 Gag HIV RNA copies in series [2] (patient A, second off/on cycle analyzed, off treatment); 362 Gag HIV RNA copies in series [2] (patient A, second off/on cycle analyzed, on treatment); 504 Gag HIV RNA copies in series [2] (patient B, first off/on cycle analyzed, off treatment); 841 Gag HIV RNA copies in series [2] (patient B, first off/on cycle analyzed, on treatment). Further, the “cell-associated unspliced Gag HIV RNA” value is reported as 892 Gag HIV RNA copies in series [2] (patient B, second off/on cycle analyzed, off treatment) and 1196 Gag HIV RNA copies in series [2] (patient B, second off/on cycle analyzed, on treatment). The “average increase of histone H3 acetylation from baseline” value in the series with histone H3 acetylation (day 4, eight patients, PBMC's, panobinostat 20 mg TIW every other week) is recorded as 267%. The “levels of histone acetylation” value in the series on histone H3 acetylation (off-treatment weeks) is “dropped to near baseline levels”. The “effect on CD4+ T cell counts in blood” value with CD4+ T cells was “no immune deterioration”.
